Assay results from US10463664B2, “Inhibitors of HSV nucleotidyl transferases and uses therefor” (Saint Louis University, priority 2013, dated 2019).

What was measured:
HBV RNaseH = biological target: T1, HBV RNaseH (Hepatitis B virus genotype A2 subtype adw2, UniProt P03159); test: Biochemical inhibition of HBV RNaseH (oligonucleotide-directed RNA cleavage assay); conditions: compounds at 60, 20 or 10 μM
T1 construct: One of the inventors recently produced active recombinant HBV RNase H; hexahistidine; made in house; host or cells: E. coli
T1 sequence (P03159 693-845): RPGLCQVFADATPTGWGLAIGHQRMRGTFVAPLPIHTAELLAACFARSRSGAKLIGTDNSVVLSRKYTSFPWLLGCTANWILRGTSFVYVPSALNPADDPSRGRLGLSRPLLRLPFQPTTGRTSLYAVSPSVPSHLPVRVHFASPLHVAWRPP
Description: (§1) Biochemical inhibition of HBV RNaseH and human RNaseH1 activity. […] RNaseH activity was measured using an oligonucleotide-directed RNA cleavage assay in which a DNA oligonucleotide is annealed to an internally ^32P-labeled RNA, the RNA:DNA heteroduplex is incubated with the enzyme to permit cleavage, and then the RNA cleavage products are resolved by electrophoresis and detected by autoradiography. The compounds were included in the reaction mixes at 60, 20, or 10 μM and the amount of the RNA cleavage products in the compound-containing reactions was compared to reactions in which an equivalent concentration of DMSO was added as a vehicle control. The data were quantified using ImageJ.

HSV-2 [1] = test: Anti-HSV-2 replication assay in Vero cells, titer by plaque assay; assay type: cell-based, herpes simplex virus 2; conditions: for Anti-HSV-2 Log10 suppression 5 μM / Anti-HSV-2 Log10 suppression 50 μM: moi 0.1, 24 h, relative to DMSO; for Inhibition of HSV-2 replication (in words): primary screening
Description: (§2) Anti-HSV-1 and -HSV-2 Replication Assay. Compounds to be screened were diluted in PBS supplemented to contain 2% newborn calf serum and 1% glutamine, and added in 100 μL, volume to confluent cell monolayers in 24-well cluster plates. Immediately thereafter HSV-1 and HSV-2, diluted in the supplemented PBS medium, were added to the wells in 50 μl volume such that the final concentration of compound was 50 μM and 5 μM and the multiplicity of infection was 0.1. The plates were incubated at 37° C. for 1 hour and then virus-containing inoculum was removed and the wells were washed once in PBS. Compounds, diluted to 50 μM and 5 μM in DMEM supplemented to contain 2% newborn calf serum and 1% each penicillin/streptomycin, were added at 0.5 mL/well. Plates were incubated at 37° C. an additional 23 hr, and then the plates were visually inspected through a phase contrast microscope for cytopathic effect, and for toxic effect. […] The entire contents of each well were collected by scraping. Samples were frozen at −80° C., and then subsequently thawed, sonicated, and infectious virus titer was determined by standard plaque assay on Vero cell monolayers. Because the compounds were dissolved at 10 mM in 100% DMSO, equivalent dilutions of DMSO were added to additional wells as a control for effects of the diluent. Each experiment was repeated once. EC50 values were determined as above except that serial dilutions of the compound to be tested were prepared starting at 50 μM. The inhibitory values were calculated by non-linear curve-fitting in GraphPad Prism.
(§3) Monolayers were microscopically inspected 24 hours post-infection and wells in which more cells were visually healthier than the DMSO-treated controls were collected. Viral titers in the culture lysates were then determined by standard plaque assay on Vero cells. Inhibition of viral replication was categorized as <1 log10 relative to the DMSO-treated control, 1 to 3 log10 suppression, or ≥3 log10 suppression. […] Additionally, four polyoxygenated heterocycle compounds were tested (#128, 138, 139, 140).

HSV-1 [2] = test: HSV-1 replication inhibition in primary human foreskin fibroblasts; assay type: cell-based, herpes simplex virus 1; set-up: key to Replication inhibition HSV-1 50 μM (not quantified): NQ: Not quantified due to visible toxicity; conditions: HFF cells
Description: as §2
(§4) Inhibition of viral replication was next assessed in human foreskin fibroblasts (HFF) to determine whether NTS inhibitors could block HSV-1 and HSV-2 replication in a physiologically relevant, primary human cell type. […] Viral yields 24 hours post-infection were measured by plaque assay.

Vero cells [3] = test: Qualitative (visual) cytotoxicity assessment in primary screening; assay type: cell-based; set-up: key to Vero cell toxicity Qualitative: T: visual evidence of toxicity at 50 μM; conditions: visual, 50 μM
Description: Compound Cytotoxicity. Compound cytotoxicity was measured both subjectively and quantitatively. Subjective assessments were done by visually inspecting the infected cells at the end of the 24 hours infection window through a phase-contrast microscope.

human RNaseH1 = biological target: T2, human RNaseH1 (Homo sapiens, UniProt O60930); test: Biochemical inhibition of human RNaseH1 (oligonucleotide-directed RNA cleavage assay); conditions: compounds at 60, 20 or 10 μM
T2 construct: hexahistidine; made in house; host or cells: E. coli
T2 sequence (O60930 1-286): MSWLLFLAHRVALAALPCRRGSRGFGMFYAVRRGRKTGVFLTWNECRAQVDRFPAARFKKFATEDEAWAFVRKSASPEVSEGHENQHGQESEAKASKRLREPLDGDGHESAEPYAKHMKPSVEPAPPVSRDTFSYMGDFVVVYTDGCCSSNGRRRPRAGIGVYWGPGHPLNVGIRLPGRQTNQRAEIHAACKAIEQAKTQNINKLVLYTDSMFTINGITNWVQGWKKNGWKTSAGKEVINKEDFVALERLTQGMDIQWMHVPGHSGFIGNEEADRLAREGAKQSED
Description: as §1

[4] = test system: primary human foreskin fibroblasts; test: in vitro
Description: (§5) Toxicity Assays. Qualitative assessments of cytotoxicity were done visually by inspecting the cells in the primary screening assays. For the quantitative assays, cells were plated in 96-well plates at 1.0×10^4 per well. The next day the compounds were added at 0.78 to 100 μM in a final concentration of 1% (v/v) DMSO, and the cells were incubated for 24 hours under conditions identical to those employed for the viral replication inhibition assays. Mitochondrial toxicity was measured by incubating the cells with 0.25 mg/mL thiazolyl blue tetrazolium bromide (MTT, SigmaAldrich Chemical Co.), the cultures were incubated for 60 min, metabolites were solubilized in acidic isopropanol, and absorbance was read at 570 nm. Cellular lysis was measured by detecting release of intracellular proteases with the CytoTox-Glo assay (Promega) according to the manufacturer's instructions. Percent viability was determined for each compound concentration from the maximal absorbance or luminosity data, and then CC50 values were calculated by non-linear curve fitting using GraphPad Prism.
as §4

HSV-2 [5] = test: HSV-2 replication inhibition in primary human foreskin fibroblasts; assay type: cell-based, herpes simplex virus 2; set-up: key to Replication inhibition HSV-2 50 μM (not quantified): NQ: Not quantified due to visible toxicity; conditions: HFF cells
Description: as §2, §4

HSV-1 [6] = test: Anti-HSV-1 replication assay in Vero cells, titer by plaque assay; assay type: cell-based, herpes simplex virus 1; conditions: for Anti-HSV-1 Log10 suppression 5 μM / Anti-HSV-1 Log10 suppression 50 μM: moi 0.1, 24 h, relative to DMSO; for Inhibition of HSV-1 replication (in words): primary screening
Description: as §2, §3

in vitro = conditions: human
Description: as §5, §4

Vero cells [7] = test: CytoTox-Glo cellular lysis assay in Vero cells; assay type: cell-based; conditions: 24 h; read-out: Vero cell toxicity CTG CC50
Description: Quantitative toxicity measurements were conducted for all compounds that suppressed HSV replication by approximately 2 login or more at 5 μM plus a number of compounds with lesser inhibitory activity for comparison. Toxicity was assessed by measuring release of intracellular proteases into the culture medium due to cellular lysis. […] Consistent with the subjective assessments of toxicity, all compounds selected for quantitative toxicity assessment had CC50 values ≥50 μM by both the MTT and cellular lysis assays (Table 1).

Vero cells [8] = test: MTT mitochondrial toxicity assay in Vero cells; assay type: cell-based; conditions: 24 h; read-out: Vero cell toxicity MTT CC50
[9] = relative to DMSO-treated control
[10] = 50 μM, relative to DMSO-treated control

| Anti-HBV RNaseH (HBV RNaseH) | Anti-Human RNaseH1 (human RNaseH1) | Structure (SMILES) | Anti-HSV-2 Log10 suppression 5 μM (HSV-2 [1]; 5 μM) | Anti-HSV-2 Log10 suppression 50 μM (screening symbol) (HSV-2 [1]; visual inspection) | Replication inhibition HSV-1 5 μM (HSV-1 [2]; [9]) | Vero cell toxicity Qualitative (Vero cells [3]) | Replication inhibition HSV-2 5 μM (HSV-2 [5]; [9]) | Anti-HSV-1 Log10 suppression 5 μM (HSV-1 [6]; 5 μM) | Anti-HSV-2 Log10 suppression 50 μM (HSV-2 [1]) | Anti-HSV-1 Log10 suppression 50 μM (HSV-1 [6]; 50 μM) | CC50 (Vero cells [7]) | CC50 (Vero cells [8]) | other results |
| --- | --- | --- | --- | --- | --- | --- | --- | --- | --- | --- | --- | --- | --- |
| − (no inhibition at 60 μM) | − (no inhibition at 60 μM) | COc1cc2c(cc1Cc1cccc(Cl)c1F)c(=O)c(C(=O)O)cn2[C@H](CO)C(C)C [Compound 10, Elvitegravir, reference compound] |  | − |  | T |  |  |  |  |  |  | Anti-HSV-2 Log10 suppression 5 μM (screening symbol) (HSV-2 [1]; 5 μM, visual inspection): −; Anti-HSV-1 Log10 suppression 5 μM (screening symbol) (HSV-1 [6]; 5 μM, visual inspection): −; Anti-HSV-1 Log10 suppression 50 μM (screening symbol) (HSV-1 [6]; 50 μM, visual inspection): − |
| +++ (inhibition at 10 μM) | +++ (inhibition at 10 μM) | O=c1cc2oc3cc(O)c(O)cc3c(-c3ccccc3)c-2cc1O [Compound 31] | 0.22 log10 |  |  |  |  | 0.21 log10 | 3.56 log10 | 3.01 log10 | > 100 µM | > 100 µM |  |

Continued, compound first:

| Structure (SMILES) | Anti-HBV RNaseH (HBV RNaseH) | Anti-Human RNaseH1 (human RNaseH1) | Anti-HSV-2 Log10 suppression 5 μM (HSV-2 [1]; 5 μM) | Anti-HSV-2 Log10 suppression 50 μM (screening symbol) (HSV-2 [1]; visual inspection) | Replication inhibition HSV-1 5 μM (HSV-1 [2]; [9]) | Vero cell toxicity Qualitative (Vero cells [3]) | Replication inhibition HSV-2 5 μM (HSV-2 [5]; [9]) | Anti-HSV-1 Log10 suppression 5 μM (HSV-1 [6]; 5 μM) | Anti-HSV-2 Log10 suppression 50 μM (HSV-2 [1]) | Anti-HSV-1 Log10 suppression 50 μM (HSV-1 [6]; 50 μM) | CC50 (Vero cells [7]) | CC50 (Vero cells [8]) | other results |
| --- | --- | --- | --- | --- | --- | --- | --- | --- | --- | --- | --- | --- | --- |
| Cc1ccc(S(=O)(=O)Oc2cccccc2=O)cc1 [Compound 61] | − (no inhibition at 60 μM) | ++ (inhibition at 20 μM) | 0.23 log10 | − | −0.17 log10 | T | −0.05 log10 | 0.15 log10 |  |  |  |  | Inhibition of HSV-2 replication (in words) (HSV-2 [1]): negligible inhibitors; Replication inhibition HSV-1 50 μM (not quantified) (HSV-1 [2]; 50 μM): NQ; CC50 [4]: 27.8 µM; Toxicity in HFF cells (in words) [4]: some toxicity; Replication inhibition HSV-2 50 μM (not quantified) (HSV-2 [5]; 50 μM): NQ; Inhibition of HSV-1 replication (in words) (HSV-1 [6]): negligible inhibitors |
| O=c1cccccc1O [Compound 53, Tropolone] | − (no inhibition at 60 μM) | − (no inhibition at 60 μM) | 0.45 log10 |  | −0.03 log10 |  | 0.29 log10 | 0.25 log10 | 1.45 log10 | 1.90 log10 |  |  | Inhibition of HSV-2 replication (in words) (HSV-2 [1]): negligible inhibitors; Replication inhibition HSV-1 50 μM (HSV-1 [2]; [10]): 2.13 log10; CC50 at 24 h (in vitro): > 100 µM; Replication inhibition HSV-2 50 μM (HSV-2 [5]; [10]): 1.22 log10; Inhibition of HSV-1 replication (in words) (HSV-1 [6]): negligible inhibitors |
| O=C1Cc2ccccc2C(=O)N1O [Compound 1] | +++ (inhibition at 10 μM) |  | −0.11 log10 |  |  | T? |  | 0.28 log10 | 3.12 log10 | 2.66 log10 | > 100 µM | > 100 µM |  |
| C[C@H](Cc1ccc(O)c(O)c1)[C@@H](C)Cc1ccc(O)c(O)c1 [Compound 2] | − (no inhibition at 60 μM) | − (no inhibition at 60 μM) | −0.15 log10 |  |  |  |  | −0.19 log10 | 4.38 log10 | 3.21 log10 | > 100 µM | > 100 µM |  |
| O=Nc1ccc(O)c(=O)cc1 [Compound 50, 5-nitrosotropolone] | − (no inhibition at 60 μM) | − (no inhibition at 60 μM) |  | + | 2.92 log10 | T | 2.88 log10 |  |  |  |  |  | Replication inhibition HSV-1 50 μM (not quantified) (HSV-1 [2]; 50 μM): NQ^4; CC50 [4]: 40.4 µM; Toxicity in HFF cells (in words) [4]: some toxicity; Replication inhibition HSV-2 50 μM (not quantified) (HSV-2 [5]; 50 μM): NQ |
